The values that follow are results of earlier work, collected in US20250049666A1, “LIQUID COMPOSITION HAVING ENHANCED ANTIMICROBIAL ACTIVITY” (Conopco Inc., d/b/a UNILEVER, priority 2021, published 2025).

As to `CCCCCCCC(=O)O` [Caprylic acid], the pKa is listed as 4.72.
Take Capryloyl salicylic acid: the pKa entry is on record as “acid (pKa = 3.83, log”. Under “octanol/water”, the “log P” value is “P = 4.83)”.

The pKa is the negative logarithm of the acid dissociation constant.
